Test results reported in patent US20240050576A1, “METHODS AND COMPOUNDS FOR THE TREATMENT OF GENETIC DISEASE” (Design Therapeutics, Inc., priority 2020, published 2024).
Read-outs that look alike come from different tables or passages of the source.

Tested on: human FXN
Assay: FXN mRNA expression by qRT-PCR in GM15850 cells after 48 hr compound treatment
Type: cell-based
Conditions: GM15850 cells, 48 hr incubation, hFXN normalized to hGAPDH, read-out: EC50 WT (nM, 48 hr)
Description: Cell culture: Cells were cultured in RPMI1640 medium+15% FBS. Cells were maintained at a density between 2e5/mL and 1e6/mL. Cells were centrifuged, resuspended in fresh medium, counted and plated at 150,000 cells per well in 100 uL in a non-coated, flat bottom tissue culture plate.
Compound treatment: 10 mM stock solution of FA GeneTAC was diluted 1:10 in DMSO followed by a 1:100 dilution in growth medium. […] Compound was then diluted at a 1:3 ratio into growth medium containing 0.01% DMSO. 5-point, 3-fold dose response curve was generated. 11 μL of 10× compound was added to wells containing 100 μL cell suspension of GM15850. 11 μL growth medium containing 0.01% DMSO was added to all wells not treated with FA GeneTAC. Cells were allowed to incubate for 48 hrs prior to cell lysis using guanidine isothiocyanate solution.
RNA isolation: Total RNA was isolated and purified in 384-well column filter plates using chaotropic salt.
qRT-PCR: qRT-PCR reactions were assembled using AgPath-ID reagents (Thermo Fisher) using 6 uL mastermix and 4 μL RNA. qRT-PCR TaqMan primer probe sets against human FXN (Assay ID Hs01075496_m1) and human GAPDH (Assay ID Hs00266705_g1) were used to measure the intended targets. qRT-PCR was run on the ThermoFisher QuantStudio 6 PRO instrument using the manufacturer's recommended cycling conditions.
Data analysis: qPCR data was analyzed using Thermo Fisher Design and Analysis software. Data was exported to Excel and hFXN expression was normalized to hGAPDH expression.

Row | SMILES | EC50 (Homo sapiens) [nM] | EC50 [nM]
1 | COc1ccc2c(c1)C(c1ccc(Cl)cc1)=N[C@@H](CC(=O)Nc1ccc(OCCOCCOCCOCCOCCOCCC(=O)NCCCN(C)CCCNC(=O)CCNC(=O)c3nc(NC(=O)CCNC(=O)c4cc(NC(=O)c5nc(NC(=O)CCNC(=O)c6cc(NC(=O)c7nccn7C)cn6C)cn5C)cn4C)cn3C)cc1)c1nnc(C)n1-2 [Compound 6] | 100 to 500 | –
2 | COC[C@@H](C)n1c(C2CCN(C(=O)COCCOCCOCCOCCOCCC(=O)NCCCN(C)CCCNC(=O)CCNC(=O)c3nc(NC(=O)CCNC(=O)c4cc(NC(=O)c5nc(NC(=O)CCNC(=O)c6cc(NC(=O)c7nccn7C)cn6C)cn5C)cn4C)cn3C)CC2)nc2cnc3cc(-c4c(C)noc4C)c(OC)cc3c21 [Compound 20] | 100 to 500 | –
3 | COC[C@@H](C)n1c(C2CCN(C(=O)COCCOCCOCCOCCOCCOCCOCCNC(=O)CCNC(=O)c3nc(NC(=O)CCNC(=O)c4cc(NC(=O)c5nc(NC(=O)CCNC(=O)c6cc(NC(=O)c7nccn7C)cn6C)cn5C)cn4C)cn3C)CC2)nc2cnc3cc(-c4c(C)noc4C)c(OC)cc3c21 [Compound 43, N-[5-[(2-[[2-([2-[(23-[4-[7-(3,5-dimethyl-1,2-oxazol-4-yl)-8-methoxy-1-[(2R)-1-methoxypropan-2-yl]imidazo[4,5-c]quinolin-2-yl]piperidin-1-yl]-23-oxo-3,6,9,12,15,18,21-heptaoxatricosan-1-yl)carbamoyl]ethyl]carbamoyl)-1-methylimidazol-4-yl]carbamoyl]ethyl)carbamoyl]-1-methylpyrrol-3-yl]-1-methyl-4-(3-[[1-methyl-4-(1-methylimidazole-2-amido)pyrrol-2-yl]formamido]propanamido) imidazole-2-carboxamide] | > 500 | –
4 | CC(=O)N1c2ccc(-c3ccc(C(=O)NCCOCCOCCOCCOCCOCCOCCOCCOCCNC(=O)c4nc(NC(=O)CCNC(=O)c5cc(NC(=O)c6nc(NC(=O)CCNC(=O)c7cc(NC(=O)c8nc(NC(=O)CCNC(=O)COCCOCCOCCOCCOCCOCCOCCOCCOCCOCCOCCOCCOCCOCCOCCN)cn8C)cn7C)cn6C)cn5C)cn4C)cc3)cc2[C@H](Nc2ccc(Cl)cc2)C[C@@H]1C [Compound 89] | > 500 | –
5 | COc1ccc2c(c1)C(c1ccc(Cl)cc1)=N[C@@H](CC(=O)Nc1ccc(OCCOCCOCCOCCOCCOCCOCCOCCOCCNC(=O)CCNC(=O)c3nc(NC(=O)CCNC(=O)c4cc(NC(=O)c5nc(NC(=O)CCNC(=O)c6cc(NC(=O)c7nccn7C)cn6C)cn5C)cn4C)cn3C)cc1)c1nnc(C)n1-2 [Compound 25] | 100 to 500 | –
6 | Cc1sc2c(c1C)C(c1ccc(Cl)cc1)=N[C@@H](CC(=O)Nc1ccc(CCCOCCOCCOCCOCCOCCOCCOCCOCCNC(=O)CCNC(=O)c3nc(NC(=O)CCNC(=O)c4cc(NC(=O)c5nc(NC(=O)CCNC(=O)c6cc(NC(=O)c7nccn7C)cn6C)cn5C)cn4C)cn3C)cc1)c1nnc(C)n1-2 [Compound 63] | < 100 | –
7 | Cc1sc2c(c1C)C(c1ccc(Cl)cc1)=N[C@@H](CC(=O)Nc1ccc(OCCOCCOCCOCCOCCOCCOCCC(=O)NCCCN(C)CCCNC(=O)c3cc(NC(=O)c4nc(NC(=O)CCNC(=O)c5cc(NC(=O)c6nc(NC(=O)CCNC(=O)c7cc(NC(=O)c8nccn8C)cn7C)cn6C)cn5C)cn4C)cn3C)cc1)c1nnc(C)n1-2 [Compound 55] | 100 to 500 | –
8 | CCCNC(=O)CCNC(=O)c1nc(NC(=O)CCNC(=O)c2cc(NC(=O)c3nc(NC(=O)CCNC(=O)c4cc(NC(=O)c5nc(NC(=O)COCCOCCOCCOCCOCCOCCOCCOCCOc6ccc(NC(=O)C[C@@H]7N=C(c8ccc(Cl)cc8)c8c(sc(C)c8C)-n8c(C)nnc87)cc6)cn5C)cn4C)cn3C)cn2C)cn1C [Compound 50] | < 100 | –
9 | CC(=O)N1c2ccc(-c3ccc(C(=O)NCCOCCOCCOCCOCCOCCOCCOCCOCCNC(=O)CCNC(=O)c4nc(NC(=O)CCNC(=O)c5cc(NC(=O)c6nc(NC(=O)CCNC(=O)c7cc(NC(=O)c8nccn8C)cn7C)cn6C)cn5C)cn4C)cc3)cc2[C@H](Nc2ccc(Cl)cc2)C[C@@H]1C [Compound 36] | < 100 | –
10 | CC(=O)N1c2ccc(-c3ccc(C(=O)NCCOCCOCCOCCOCCOCCOCCOCCOCCNC(=O)c4nc(NC(=O)CCNC(=O)c5cc(NC(=O)c6nc(NC(=O)CCNC(=O)c7cc(NC(=O)c8nc(NC(=O)CCNC(=N)N)cn8C)cn7C)cn6C)cn5C)cn4C)cc3)cc2[C@H](Nc2ccc(Cl)cc2)C[C@@H]1C [Compound 86, N-[5-([2-[(2-[[26-([4-[(2S,4R)-1-acetyl-4-[(4-chlorophenyl)amino]-2-methyl-3,4-dihydro-2H-quinolin-6-yl]phenyl]formamido)-3,6,9,12,15,18,21,24-octaoxahexacosan-1-yl]carbamoyl]-1-methylimidazol-4-yl)carbamoyl]ethyl]carbamoyl)-1-methylpyrrol-3-yl]-4-[3-([4-[4-(3-carbamimidamidopropanamido)-1-methylimidazole-2-amido]-1-methylpyrrol-2-yl]formamido)propanamido]-1-methylimidazole-2-carboxamide] | > 500 | –
11 | Cc1sc2c(c1C)C(c1ccc(Cl)cc1)=N[C@@H](CC(=O)Nc1ccc(OCCOCCOCCOCCOCCOCCC(=O)N(C)CCCN(C)CCCNC(=O)CCNC(=O)c3nc(NC(=O)CCNC(=O)c4cc(NC(=O)c5nc(NC(=O)CCNC(=O)c6cc(NC(=O)c7nccn7C)cn6C)cn5C)cn4C)cn3C)cc1)c1nnc(C)n1-2 [Compound 53] | 100 to 500 | –
12 | Cc1sc2c(c1C)C(c1ccc(Cl)cc1)=N[C@@H](CC(=O)Nc1ccc(OCCOCCOCCOCCOCCOCCC(=O)NCCCN(C)CCCNC(=O)CCNC(=O)c3nc(NC(=O)CCNC(=O)c4cc(NC(=O)c5nc(NC(=O)CCNC(=O)c6cc(NC(=O)c7nccn7C)cn6C)cn5C)cn4C)cn3C)cc1)c1nnc(C)n1-2 [Compound 3] | 100 to 500 | –
13 | COC[C@@H](C)n1c(C2CCN(CCOCCOCCOCCOCCOCCC(=O)NCCCN(C)CCCNC(=O)CCNC(=O)c3nc(NC(=O)CCNC(=O)c4cc(NC(=O)c5nc(NC(=O)CCNC(=O)c6cc(NC(=O)c7nccn7C)cn6C)cn5C)cn4C)cn3C)CC2)nc2cnc3cc(-c4c(C)noc4C)c(OC)cc3c21 [Compound 10] | 100 to 500 | –
14 | Cc1sc2c(c1C)C(c1ccc(Cl)cc1)=N[C@@H](CC(=O)Nc1cncc(OCCOCCOCCOCCOCCOCCOCCOCCOCCNC(=O)CCNC(=O)c3nc(NC(=O)CCNC(=O)c4cc(NC(=O)c5nc(NC(=O)CCNC(=O)c6cc(NC(=O)c7nccn7C)cn6C)cn5C)cn4C)cn3C)c1)c1nnc(C)n1-2 [Compound 103] | < 100 | –
15 | Cc1sc2c(c1C)C(c1ccc(Cl)cc1)=N[C@@H](CC(=O)Nc1ccc(OCCOCCOCCOCCOCCOCCOCCOCCOCCNC(=O)CCNC(=O)c3nc(NC(=O)CCNC(=O)c4cc(NC(=O)c5nc(NC(=O)CCNC(=O)c6cc(NC(=O)c7nccn7C)cn6C)cn5C)cn4C)cn3C)cc1)c1nnc(C)n1-2 [Compound 13] | < 100 | –
16 | Cc1noc(C)c1-c1cnc2c(-c3ccc(C(=O)NCCOCCOCCOCCOCCOCCC(=O)NCCCN(C)CCCNC(=O)CCNC(=O)c4nc(NC(=O)CCNC(=O)c5cc(NC(=O)c6nc(NC(=O)CCNC(=O)c7cc(NC(=O)c8nccn8C)cn7C)cn6C)cn5C)cn4C)cc3)cn([C@@H](C)c3ccccn3)c2c1 [Compound 8] | < 100 | –
17 | Cc1sc2c(c1C)C(c1ccc(Cl)cc1)=N[C@@H](CC(=O)Nc1ccc(OCCOCCOCCOCCOCCOCCC(=O)NCCCN(CCCNC(=O)CCNC(=O)c3nc(NC(=O)CCNC(=O)c4cc(NC(=O)c5nc(NC(=O)CCNC(=O)c6cc(NC(=O)c7nccn7C)cn6C)cn5C)cn4C)cn3C)CC(F)(F)F)cc1)c1nnc(C)n1-2 [Compound 38] | – | < 100
18 | Cc1sc2c(c1C)C(c1ccc(Cl)cc1)=N[C@@H](CC(=O)Nc1ccc(CCCOCCOCCOCCOCCOCCC(=O)NCCCN(C)CCCNC(=O)CCNC(=O)c3nc(NC(=O)CCNC(=O)c4cc(NC(=O)c5nc(NC(=O)CCNC(=O)c6cc(NC(=O)c7nccn7C)cn6C)cn5C)cn4C)cn3C)cc1)c1nnc(C)n1-2 [Compound 60] | 100 to 500 | –
19 | Cc1noc(C)c1-c1cnc2c(-c3ccc(C(=O)NCCOCCOCCOCCOCCOCCOCCOCCOCCNC(=O)CCNC(=O)c4nc(NC(=O)CCNC(=O)c5cc(NC(=O)c6nc(NC(=O)CCNC(=O)c7cc(NC(=O)c8nccn8C)cn7C)cn6C)cn5C)cn4C)cc3)cn([C@@H](C)c3ccccn3)c2c1 [Compound 42] | < 100 | –
20 | CC(=O)N1c2ccc(-c3ccc(C(=O)NCCOCCOCCOCCOCCOCCOCCOCCOCCNC(=O)c4nc(NC(=O)CCNC(=O)c5cc(NC(=O)c6nc(NC(=O)CCNC(=O)c7cc(NC(=O)c8nc(NC(=O)CCNC(=O)COCCOCCOCCNC(=N)N)cn8C)cn7C)cn6C)cn5C)cn4C)cc3)cc2[C@H](Nc2ccc(Cl)cc2)C[C@@H]1C [Compound 87] | 100 to 500 | –
21 | Cc1sc2c(c1C)C(c1ccc(Cl)cc1)=N[C@@H](CC(=O)Nc1ccc(OCCOCCOCCOCCOCCOCCOCCOCC(=O)NCCNC(=O)CCNC(=O)c3nc(NC(=O)CCNC(=O)c4cc(NC(=O)c5nc(NC(=O)CCNC(=O)c6cc(NC(=O)c7nccn7C)cn6C)cn5C)cn4C)cn3C)cc1)c1nnc(C)n1-2 [Compound 17] | < 100 | –
22 | COc1ccc2c(c1)C(c1ccc(Cl)cc1)=N[C@@H](CC(=O)Nc1ccc(OCCOCCOCCNC(=O)[C@H](CCCNC(=N)N)NC(=O)[C@H](CCCNC(=N)N)NC(=O)CCOCCOCCOCCNC(=O)CCNC(=O)c3nc(NC(=O)CCNC(=O)c4cc(NC(=O)c5nc(NC(=O)CCNC(=O)c6cc(NC(=O)c7nccn7C)cn6C)cn5C)cn4C)cn3C)cc1)c1nnc(C)n1-2 [Compound 100] | 100 to 500 | –
